Assay results reported in US20040248909A1, “Adenosine a1 receptor antagonist for treating hypoxia-induced learning memory impairment” (priority 2001, published 2004).

Key:
CA1 pyramidal cells [1] = assay: Carbachol-induced cholinergic CA1 θ field potential and intracellular θ in hippocampal slices, with or without brief hypoxia; assay type: cell-based, rat
Procedure: (§1) Brain slices and electrophysiology. Male Sprague-Dawley rats (150-200 gm) were anesthetized with pentobarbital and the brains were removed and cooled rapidly in aCSF solution, bubbled continuously with 95% O2 and 5% CO2. Hippocampi were sliced ([…]) and placed in oxygenated aCSF (NaCl, 124 mM; KCl 3; MgSO4 1.3; CaCl2 2.4; NaHCO3 26; NaH2PO4 1.25; and glucose 10). The CA1 pyramidal cells were recorded at 30-31° C. with sharp electrodes (tip resistance: 60-120 MΩ). Study was performed on CA1 neurons with stable resting membrane potential more negative than −70 mV. Unless otherwise mentioned, test stimuli were applied at frequency of 1 per minute (0.017 Hz). Signals were amplified with AxoClamo-2B amplifier, digitized and stored using DigiData 1200 with the P-Clamp data collection and analysis software (Axon Instruments, Inc.).
Hypoxia. Episodes of hypoxia were induced by replacing the oxygen supply with […] for 3 min or 95% N2/5% CO2 for 100 s. […] The hypoxia is milder than those used by others to produce an irreversible impairment of synaptic transmission^25.
Effects of brief hypoxia on functions of CA1 neurons were monitored on synaptic transmission, long-term potentiation (LTP) of glutamatergic EPSPs, and cholinergic θ, a memory-related neuronal activity synchronization that depends on a temporal heterosynaptic interaction. Bath application of carbachol (50 μM, 20 min), a cholinergic receptor agonist, to hippocampal slices mimicked septal activation and diffuse acetylcholine transmission and induced CA1 θ field potential (FIG. 1a; peak amplitude: 0.73±0.02 mV, n=10, p<0.05, at 7.4±0.7 Hz from background noise). The θ is sensitive to atropine blockade and lasted for more than 3h^7. The θ oscillation of membrane potential (7.5±1.0 mV; n=18; p<0.05) was also observed in CA1 pyramidal cells (intracellular θ; FIG. 1b). […] LTP of responses to schaffer collateral (Sch) glutamatergic inputs (FIG. 1c,e), however, was not reduced, but enhanced, by the hypoxia (FIG. 1d,e), consistent with reported hypoxic LTP^8 and the observation that LTP expression is not vulnerable to transient hypoxia a few minutes after hypoxia.

CA1 pyramidal cells [2] = assay: Membrane response of CA1 pyramidal cells to local application of glutamate; assay type: cell-based, rat; conditions: 20 μl of 10 mM
Procedure: as §1
(§2) Hypoxia. Episodes of hypoxia were induced by replacing the oxygen supply with 95% N2/5% O2/5% CO2 for 3 min or 95% N2/5% CO2 for 100 s. […]
(§3) The period of hypoxia is known to block synaptic transmission of glutarmatergic inputs^8, GABAergic input^8,10 and cholinergic inputs ^11,12, causing disconnection, or synaptic ‘arrest’, of CA1 neuronal network^8. […] Effects of brief hypoxia on synaptic transmission and of agents on hypoxic responses were monitored on responses of CA1 pyramidal cells to Sch activation. […]

CA1 pyramidal cells [3] = assay: Sch-CA1 synaptic transmission (EPSPs) in hippocampal slices during brief hypoxia (synaptic arrest); assay type: cell-based, rat
Procedure: as §1, §2, §3

hypoxia rats = assay: Hidden-platform water maze spatial learning and memory in rats subjected to brief hypoxia; assay type: in vivo, rat; conditions: bilateral i.c.v. 400 nmoles/site
Procedure: The figure illustrates experimental protocol (FIG. 4a), escape latency (means±SEM) in water maze training (FIG. 4b) across 12 trials (F11,312=50.14, p<0.0001), and quadrant preference (FIGS. 4c, 4d and 4e) conducted at the end of the twelfth training session, and swimming distance (in 1 min; FIG. 4f). Rats were either subjected to air or hypoxia (95% N2/5% CO2 for 100 s) about 30 min in a glass jar after the 2nd-or 4th trial of the day. Bilateral i.c.v. CPDPX (400 nmoles/site) or vehicle were administered before the 2nd and 4th trials of the day. Quadrant 4 is the target quadrant during training.
Spatial maze tasks. Male adult Wistar rats (200-250 gm) were anesthetized with sodium pentobarbital (60 mg/kg, i.p) and placed in a stereotactic apparatus (Kopf Instruments, Tujunga, Calif.). Two stainless steel guide cannulas were placed with the tips positioned at the coordinates (anterior-posterior, 0.5 mm; lateral, 1.5 mm; horizontal, 3.2 mm), under aseptic conditions. A 7-day recovery period was allowed before any further experimentation. All rats were randomly assigned to different groups (10 each) and swam for 2 min in a 1.5 m (diameter)×0.6 m (depth) pool (22±1° C.). […]
One of the most persistent consequences of transient hypoxia/ischemia is amnesia. Effects of brief hypoxia and CPDPX on spatial learning (FIG. 4a) were evaluated in rats, using a hidden-platform water maze. […]

adenosine A1 receptor = target: T1, adenosine A1 receptor (Rattus norvegicus, UniProt P25099); conditions: cited from earlier work
T1 sequence (P25099 1-326): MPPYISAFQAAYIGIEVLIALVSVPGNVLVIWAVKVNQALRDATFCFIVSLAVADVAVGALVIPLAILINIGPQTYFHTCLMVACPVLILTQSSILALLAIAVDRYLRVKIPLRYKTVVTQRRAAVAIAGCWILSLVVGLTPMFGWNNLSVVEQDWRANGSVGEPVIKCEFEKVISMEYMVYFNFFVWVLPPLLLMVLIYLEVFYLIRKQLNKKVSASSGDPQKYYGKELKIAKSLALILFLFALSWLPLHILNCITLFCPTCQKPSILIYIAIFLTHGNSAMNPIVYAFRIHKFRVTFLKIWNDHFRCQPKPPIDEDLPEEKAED

In the case of `C[N+](C)(C)CCOC(N)=O` [carbachol], the “frequency of induced CA1 θ field potential” value (CA1 pyramidal cells [1]; bath application 50 μM, 20 min) is reported as 7.4±0.7 Hz, the “induced CA1 θ field potential peak amplitude” value (CA1 pyramidal cells [1]; bath application 50 μM, 20 min, n=10) is reported as 0.73±0.02 mV and the “θ oscillation of membrane potential (intracellular θ)” value (CA1 pyramidal cells [1]; carbachol 50 μM, CA1 pyramidal cells, n=18) is reported as 7.5±1.0 mV.

For `N[C@@H](CCC(=O)O)C(=O)O` [glutamate], the “peak inward current, control value” (CA1 pyramidal cells [2]; local application before hypoxia) was 206.8±9.7 pA and the peak inward current (CA1 pyramidal cells [2]; local application during last few seconds of 3 min hypoxia, n=7) was 201.2±10.5 pA.

In the case of `CCCn1c(=O)c2[nH]c(C3CCCC3)nc2n(CCC)c1=O` [CPDPX, 8-cyclopentyl-1,3-dipropylxanthine], the “synaptic transmission at the end of the hypoxia versus control 100%” value (CA1 pyramidal cells [3]; Sch-CA1 EPSPs, brief hypoxia 5% O2 3 min, 10 μM, n=7, p>0.05) is reported as 99.2±2.4%, the “effect on hypoxic synaptic arrest” value (CA1 pyramidal cells [3]; end of 3 min hypoxia, citicoline 100 μM, 8-cyclopentyl-1,3-dipropylxanthine 10 μM) is reported as “synaptic arrest was abolished” and the “intracellular θ after brief hypoxia (versus pre-hypoxia)” value (CA1 pyramidal cells [1]; in presence of CPDPX, CA1 pyramidal cells, n=8, p>0.05) is reported as 99.6±3.0%. The “θ activity after brief hypoxia (versus pre-hypoxia)” value (CA1 pyramidal cells [1]; in presence of CPDPX, carbachol-induced CA1 θ, n=6, p>0.05) was 100.2±3.2%, the “quadrant preference in quadrant test” value (hypoxia rats; 24 hrs after last training trial, F3,36=169.7, p<0.0001) was “showed a preference for the target quadrant” and the “effect on hypoxic impairment of spatial memory (escape latency)” value (hypoxia rats; hypoxia 95% N2/5% CO2 100 s) was “eliminated hypoxic impairment on the spatial memory”. For the same molecule, the “effect on adenosine-mediation of anoxia induced synaptic glutamate release in CA1 pyramidal neurons” value (adenosine A1 receptor; Katchman et al. 1996) was “not affected” and the “effect on hypoxia-induced accumulation of adenosine” value (adenosine A1 receptor; Pearson et al. 2000) was “mitigates hypoxia-induced accumulation of adenosine during hypoxia”.
